Laboratory results published in patent US12544391B2, “CD73 inhibitors” (ORIC Pharmaceuticals, Inc., priority 2019, dated 2026).

Columns and labels:
[1] = biological target: T1, cell bound CD73 on Human NSCLC H1568 cells (Homo sapiens, UniProt P21589); test: Cellular CD73 assay in H1568 cells, adenosine produced from AMP by LC-MS/MS; format: cell-based; details: RPMI/10% human plasma, 1 h with AMP/EHNA, adenosine in supernatant
T1 construct: Human NSCLC H1568 cells expressing endogenous CD73 on their surface; host or cells: H1568 (human NSCLC)
T1 sequence (P21589 27-549): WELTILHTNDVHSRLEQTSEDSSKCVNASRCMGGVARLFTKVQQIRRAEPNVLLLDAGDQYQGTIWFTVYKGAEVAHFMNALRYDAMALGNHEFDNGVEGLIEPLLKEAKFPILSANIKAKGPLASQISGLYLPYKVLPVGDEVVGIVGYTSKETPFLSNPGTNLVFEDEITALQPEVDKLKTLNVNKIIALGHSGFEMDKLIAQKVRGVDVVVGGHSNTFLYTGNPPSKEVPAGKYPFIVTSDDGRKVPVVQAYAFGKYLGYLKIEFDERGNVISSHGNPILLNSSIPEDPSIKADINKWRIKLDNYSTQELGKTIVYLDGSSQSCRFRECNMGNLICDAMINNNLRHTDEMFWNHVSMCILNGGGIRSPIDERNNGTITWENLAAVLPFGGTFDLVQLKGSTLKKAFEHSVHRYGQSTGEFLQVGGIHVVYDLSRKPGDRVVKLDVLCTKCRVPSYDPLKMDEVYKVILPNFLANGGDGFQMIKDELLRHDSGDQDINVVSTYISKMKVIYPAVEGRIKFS
Experimental: Activity of cell bound CD73 was assessed by direct measurement of adenosine produced from AMP using liquid chromatography with tandem mass-spectrometry (LC-MS/MS). Human NSCLC H1568 cells expressing endogenous CD73 on their surface were obtained from ATCC(CRL-5876) and cultured in growth medium (RPMI, 10% FBS, 1 mM L-glutamine, […]). Cells were seeded onto 96-well tissue culture plates at 10,000 cells/well and allowed to adhere for 20-24 h. 500× serial compound dilutions were prepared in DMSO in a 12-point 3-fold titration, and then diluted 1:50 into RPMI supplemented with 10% human plasma (BioIVT, cat #HMPLEDTA5) generating 10× compound dilutions. Growth medium was removed from the cells and replaced with […] of RPMI/10% human plasma. 10 mL of 10× compound dilutions were then added to the cells and incubated for 15 min at 37° C., 5% CO2. Then 10 mL of 100 mM AMP/50 mM EHNA (Sigma-Aldrich, A1752 and E114) were added to a final concentration of […]. After 1 h incubation at 37° C., 5% CO2, […] of supernatant was removed from the cells and transferred to a deep well polypropylene 96-well plate (Costar #3961) prefilled with 240 mL of organic solvent composed of methanol:acetonitrile (1:1, v/v) with 0.1% formic acid, plus 150 ng/mL of Adenosine-15N and AMP-13C as internal standards. Amount of unlabeled adenosine and AMP in each well was measured on AB Sciex API 4000 QTrap with Shimadzu LC-30AD UPLC system. Limits of adenosine and AMP detection were 10-10,000 nM and 20-10,000 nM, respectively. The IC50 values were determined based on amount of adenosine in the supernatant using four parameter non-linear regression curve fit. DMSO treated cells produced 3000-4000 nM adenosine under these conditions with negligible variability on the same day assays. Small amount of adenosine generated from AMP in the absence of cells (less than 100 nM) was used as 100% inhibition control. […]

CD73 = biological target: T2, CD73 (Homo sapiens, UniProt P21589); test: CD73 biochemical assay, Malachite Green detection of AMP hydrolysis; details: CD73 320 pM, AMP 15 μM, Malachite Green readout
T2 sequence (P21589 27-549): T1 sequence (P21589 27-549)
Procedure, shortened: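 Human CD73 (0.3208 nM, i.e. 320 pM) preincubated 15 min RT with compounds (10-point ½-log titration from 100 μM, duplicates) in Tris pH 7.4, 5 mM MgCl2, Brij-35, BSA; 15 μM AMP added, 10 min RT. Phosphate read by Malachite Green absorbance; IC50 determined.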

[2] = biological target: T3, mouse CD73 (EMT6 breast cancer cells) (Mus musculus, UniProt Q61503); test: Cellular CD73 assay in mouse EMT6 breast cancer cells, adenosine by LC-MS/MS; format: cell-based; details: PBS/3% BSA, adenosine in supernatant
T3 construct: mouse EMT6 breast cancer cells which express endogenous CD73 on their surface; host or cells: EMT6 (mouse breast cancer)
T3 sequence (Q61503 29-551): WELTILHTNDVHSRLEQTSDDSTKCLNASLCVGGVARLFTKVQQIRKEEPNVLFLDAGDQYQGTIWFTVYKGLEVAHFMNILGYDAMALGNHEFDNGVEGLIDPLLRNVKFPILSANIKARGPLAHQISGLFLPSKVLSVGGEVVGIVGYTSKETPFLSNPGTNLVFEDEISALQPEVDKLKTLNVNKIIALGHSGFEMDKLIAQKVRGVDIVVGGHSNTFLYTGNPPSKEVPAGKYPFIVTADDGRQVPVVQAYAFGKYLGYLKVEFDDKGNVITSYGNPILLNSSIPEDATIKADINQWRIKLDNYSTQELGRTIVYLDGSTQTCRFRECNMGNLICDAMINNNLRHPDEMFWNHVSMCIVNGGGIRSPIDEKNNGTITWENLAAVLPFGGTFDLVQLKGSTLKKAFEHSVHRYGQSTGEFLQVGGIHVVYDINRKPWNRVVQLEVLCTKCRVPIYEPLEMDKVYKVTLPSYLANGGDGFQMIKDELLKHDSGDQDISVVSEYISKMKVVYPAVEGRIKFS
Experimental: Activity of cell bound CD73 was assessed by direct measurement of adenosine produced from AMP using liquid chromatography with tandem mass-spectrometry (LC-MS/MS). Human NSCLC H1568 cells expressing endogenous CD73 on their surface were obtained from ATCC(CRL-5876) and cultured in growth medium (RPMI, 10% FBS, 1 mM L-glutamine, 100 mL penicillin-streptomycin). Cells were seeded onto 96-well tissue culture plates at 10,000 cells/well and allowed to adhere for 20-24 h. 500× serial compound dilutions were prepared in DMSO in a 12-point 3-fold titration, and then diluted 1:50 into RPMI supplemented with 10% human plasma (BioIVT, cat #HMPLEDTA5) generating 10× compound dilutions. Growth medium was removed from the cells and replaced with […] of RPMI/10% human plasma. 10 mL of 10× compound dilutions were then added to the cells and incubated for 15 min at 37° C., 5% CO2. Then 10 mL of 100 mM AMP/50 mM EHNA (Sigma-Aldrich, A1752 and E114) were added to a final concentration of 10 mM AMP/5 mM EHNA. After 1 h incubation at 37° C., 5% CO2, 80 mL of supernatant was removed from the cells and transferred to a deep well polypropylene 96-well plate (Costar #3961) prefilled with 240 mL of organic solvent composed of methanol:acetonitrile (1:1, v/v) with 0.1% formic acid, plus 150 ng/mL of Adenosine-15N and AMP-13C as internal standards. Amount of unlabeled adenosine and AMP in each well was measured on AB Sciex API 4000 QTrap with Shimadzu LC-30AD UPLC system. Limits of adenosine and AMP detection were 10-10,000 nM and 20-10,000 nM, respectively. The IC50 values were determined based on amount of adenosine in the supernatant using four parameter non-linear regression curve fit. DMSO treated cells produced 3000-4000 nM adenosine under these conditions with negligible variability on the same day assays. Small amount of adenosine generated from AMP in the absence of cells (less than 100 nM) was used as 100% inhibition control.
To determine activity of compounds on mouse CD73 mouse EMT6 breast cancer cells which express endogenous CD73 on their surface (ATCC, CRL-2755) were used. […]

SMILES	EC50 [1] [nM]	IC50 (CD73) [nM]	EC50 [2] [nM]
COC[C@](COCc1nn[nH]n1)(OC[C@H]1O[C@@H](c2ccc3c(NC4CCCC4)nc(Cl)nn23)[C@H](O)[C@@H]1O)P(=O)(O)O (single isomer, unassigned) [Example 9]	≤ 0.5	≤ 0.5	≤ 0.5
O=P(O)(O)[C@@](CO)(COCc1nn[nH]n1)OC[C@H]1O[C@@H](c2ccc3c(NC4CCC4)nc(Cl)nn23)[C@H](O)[C@@H]1O [Example 51, ((S)-1-((2H-tetrazol-5-yl)methoxy)-2-(((2R,3S,4R,5S)-5-(2-chloro-4-(cyclobutylamino)pyrrolo[2,1-f][1,2,4]triazin-7-yl)-3,4-dihydroxytetrahydrofuran-2-yl)methoxy)-3-hydroxypropan-2-yl)phosphonic acid]	≤ 0.5	≤ 0.5	0.5 to 1
O=P(O)(O)[C@@](CO)(COCc1nn[nH]n1)OC[C@H]1O[C@@H](c2ccc3c(NC4CCCC4)nc(Cl)nn23)[C@H](O)[C@@H]1O [Example 15, ((S)-1-((2H-Tetrazol-5-yl)methoxy)-2-(((2R,3S,4R,5S)-5-(2-chloro-4-(cyclopentylamino)pyrrolo[2,1-f][1,2,4]triazin-7-yl)-3,4-dihydroxytetrahydrofuran-2-yl)methoxy)-3-hydroxypropan-2-yl)phosphonic acid]	0.5 to 1	≤ 0.5	1 to 100
